Measured values: patent US20180049996A1, “THERAPEUTIC AGENT FOR CHRONIC RESPIRATORY DISEASE AND COMPOSITION FOR INHIBITING CARDIAC FIBROSIS” (NIPPON HYPOX LABORATORIES INCORPORATED, priority 2015, published 2018)

What was measured:
[1] = test system: Lung Inflammation Induced by Tobacco Smoke; experiment: BAL inflammatory cell numbers, lung inflammation induced by tobacco smoke (COPD model); assay type: in vivo, C57BL/6N mice; conditions: HTHQ 10 and 20 mg/kg/day oral; tobacco smoke 10 days + LPS; compared to COPD model group
Description: 6 week old male SPF C57BL/6N mice, 20 to 25 g of body weight, were purchased from CORETEC INC. (South Korea).
The tests were conducted as follows. The mice in the COPD (chronic obstructive pulmonary disease) model group of the test groups were exposed to tobacco smoke for 1 hour per day (8 cigarettes/day) for 10 days and LPS (5 μg/50 μL/mouse) was intranasally administered to the mice on day 8 after the start of the tests. Roflumilast, the positive control substance, was orally administered to the mice in the positive control substance-administered group at 10 mg/kg body weight/day, and then they were exposed to tobacco smoke for 10 days starting from 1 hour after the administration of roflumilast, and LPS (5 μg/50 μL/mouse) was intranasally administered to the mice on day 8 after the start of the tests. […]
The mice in the test groups were euthanized 72 hours after the LPS administration and the mice in the normal control group were euthanized on day 11 after the start of the tests by intraperitoneal injection of pentobarbital (Hanrimu pharmaceutical, South Korea) at 50 mg/kg and then the bronchi were excised. […] After preparing slide samples from 100 μL of BAL cell fluid using Cytospin (4° C., 1000 rpm×5 min), the cell numbers of inflammatory cells (neutrophil, macrophages) present in the BAL fluid were counted using a Diff-Quik stain kit.

IL-4 = IL-4 level in BAL fluid (ELISA), ovalbumin asthma model; assay type: in vivo, BALB/c female mice; conditions: HTHQ 20 and 40 mg/kg/day oral; compared to OVA group
Description: 6 week old BALB/c female mice were purchased and the mice were divided into 5 groups with 5 animals per group shown in Table 3 below after habituation breeding of about 2 weeks.
The test was conducted on the schedule of sensitization, causing diseases and administration of test materials shown in FIG. 12. “IP” in FIG. 12 refers to ovalbumin sensitization treatment by the intraperitoneal administration of ovalbumin/aluminum hydroxide, and “IH” refers to inhalation exposure treatment of ovalbumin, and “PO” refers to the administration of the test materials. […]
All mice were euthanized by intraperitoneal injection of pentobarbital (Hanrimu pharmaceutical, South Korea) at 50 mg/kg and the bronchi were excised on day 25 of the test. […] After preparing slide samples from 100 μL of BAL cell fluid using Cytospin (4° C., 1000 rpm×5 min), the cell numbers of inflammatory cells (eosinophils, macrophages, lymphocytes and neutrophils) present in the BAL fluid were counted using a Diff-Quik stain kit.
The supernatant of the BAL fluid stored was taken out of the super-cryostat and IL-4, IL-5 and IL-13 levels were measured as the pro-inflammatory cytokine contents in the supernatant of the BAL fluid. A quantitative ELISA kit (a product from R&D systems) and a microplate reader (a product from Bio-Rad Laboratories, Inc.) were used for the measurement and the measurement wavelength was 450 nm.

With `CCCCCCOc1cc(C)c(O)c(C)c1C` [HTHQ, 2,3,5-trimethylhydroquinone-1-hexyl ether] as the compound, how does the “infiltration of inflammatory cells (neutrophil, macrophages) in BAL fluid” value [1] read?
Its value is “effectively reduced”.

What about the “IL-4 content in BAL fluid” value (IL-4) of the same compound?
Its value is “significantly reduced”.
